Where two headings read alike, the source gives them in different places.
Tests used:
Type in all cases: in vivo
[1] = test system: Beet Armyworm (Spodoptera exigua, LAPHEG); test: Bioassays on Beet Armyworm (BAW), 128-well diet tray assay; settings: Spodoptera exigua
Method in brief: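 One to five second-instar larvae per well on artificial diet surface-treated with 50 μg/cm^2 test molecule (applied in 90:10 acetone-water, dried), eight wells per compound. Trays held vented at 25° C., 14:10 light-dark for five to seven days; percent mortality averaged over the eight wells.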

[2] = test system: Cabbage Looper (Trichoplusia ni, TRIPNI); test: Bioassays on Cabbage Looper (CL), 128-well diet tray assay; settings: Trichoplusia ni
Method in brief: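 One to five second-instar larvae per well on artificial diet surface-treated with 50 μg/cm^2 test molecule (applied in 90:10 acetone-water, dried). Held 5–7 days at 25° C, 14:10 light-dark; percent mortality recorded per well and averaged over eight wells.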

[3] = test system: Yellow Fever Mosquito (Aedes aegypti, AEDSAE); settings: for YFM rating: Table ABC / ABC-DP rating
Method in brief: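 Compounds from 4000 ppm DMSO stocks were diluted in 90:10 water/acetone and dispensed into wells, then infested with about 1-day-old larvae in liver-powder water. Covered plates were held at room temperature for 3 days and each well was scored for mortality against a rating scale; six replicate plates per compound.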

[4] = Beet Armyworm, rating class, read-out: BAW
[5] = Cabbage Looper, rating class, read-out: CL
[6] = Yellow Fever Mosquito, rating class
[7] = Beet Armyworm, Table ABC / ABC-DP rating, read-out: BAW rating
[8] = Cabbage Looper, Table ABC / ABC-DP rating, read-out: CL rating
[9] = Table ABC: Biological Results, species BAW, read-out: BAW
[10] = Table ABC: Biological Results, species CL, read-out: CL
[11] = Table ABC: Biological Results, species YFM

SMILES | pest or weed control at 50 µg/cm2 [1, 4] [%] | pest or weed control at 50 µg/cm2 [2, 5] [%] | YFM [3, 6] | pest or weed control at 50 µg/cm2 [1, 7] [%] | pest or weed control at 50 µg/cm2 [2, 8] [%] | YFM rating ([3]; Yellow Fever Mosquito) | further results
C#CC(C)C(=O)N(CC)c1c(F)ccc(NC(=O)c2cc(NC(=O)[C@H]3[C@H](c4ccc(F)c(C(F)(F)F)c4)C3(Cl)Cl)ccc2Cl)c1F (stereo partly drawn) [F1764] | 50 to 100 | 50 to 100 | A (80–100) | – | – | – | –
O=C(Nc1c(F)ccc(NC(=O)c2cc(NC(=O)[C@H]3[C@H](c4ccc(F)c(C(F)(F)F)c4)C3(Cl)Cl)ccc2Cl)c1F)c1ccn(CC(F)(F)F)n1 [F1819, N-(3-(2-Chloro-5-((1R,3R)-2,2-dichloro-3-(4-fluoro-3-(trifluoromethyl)phenyl)cyclopropane-1-carboxamido)benzamido)-2,6-difluorophenyl)-1-(2,2,2-trifluoroethyl)-1H-pyrazole-3-carboxamide] | – | – | – | 50 to 100 | 50 to 100 | A (80–100) | –
O=C(Nc1ccc(F)c(NC(=O)[C@@H]2CCCO2)c1F)c1cc(NC(=O)[C@H]2[C@H](c3ccc(F)c(C(F)(F)F)c3)C2(Cl)Cl)ccc1Cl [F1692, (S)—N-(3-(2-Chloro-5-((1R,3R)-2,2-dichloro-3-(4-fluoro-3-(trifluoromethyl)phenyl)cyclopropane-1-carboxamido)benzamido)-2,6-difluorophenyl)tetrahydrofuran-2-carboxamide] | 50 to 100 | 50 to 100 | B (More than 0 – Less than 80) | – | – | – | –
O=C(Nc1cc(NC(=O)C(F)F)c(F)cc1F)c1cc(NC(=O)[C@H]2[C@H](c3cc(Cl)c(Cl)c(Cl)c3)C2(Cl)Cl)ccc1F [F1552, 5-((1R,3R)-2,2-Dichloro-3-(3,4,5-trichlorophenyl)cyclopropane-1-carboxamido)-N-(5-(2,2-difluoroacetamido)-2,4-difluorophenyl)-2-fluorobenzamide] | 50 to 100 | 50 to 100 | A (80–100) | – | – | – | –
CO[C@@H](C)C(=O)Nc1c(F)ccc(NC(=O)c2cc(NC(=O)[C@H]3[C@H](c4ccc(F)c(C(F)(F)F)c4)C3(Cl)Cl)ccc2Cl)c1F [F1720, 2-Chloro-5-((1R,3R)-2,2-dichloro-3-(4-fluoro-3-(trifluoromethyl)phenyl)cyclopropane-1-carboxamido)-N-(2,4-difluoro-3-((S)-2-methoxypropanamido)phenyl)benzamide] | 50 to 100 | 50 to 100 | A (80–100) | – | – | – | –
O=C(CC(F)(F)F)Nc1c(F)ccc(NC(=O)c2cc(NC(=O)[C@H]3[C@H](c4ccc(Cl)c(Cl)c4)C3(Cl)Cl)ccc2Cl)c1F [F1418, 2-Chloro-5-((1R,3R)-2,2-dichloro-3-(3,4-dichlorophenyl)cyclopropane-1-carboxamido)-N-(2,4-difluoro-3-(3,3,3-trifluoropropanamido)phenyl)benzamide] | 50 to 100 | 50 to 100 | A (80–100) | – | – | – | –
CCOC(C)C(=O)N(CC)c1c(F)ccc(NC(=O)c2cc(NC(=O)[C@H]3[C@H](c4ccc(F)c(C(F)(F)F)c4)C3(Cl)Cl)ccc2Cl)c1F (stereo partly drawn) [F1827, 2-Chloro-5-((1R,3R)-2,2-dichloro-3-(4-fluoro-3-(trifluoromethyl)phenyl)cyclopropane-1-carboxamido)-N-(3-(2-ethoxy-N-ethylpropanamido)-2,4-difluorophenyl)benzamide] | – | – | – | 50 to 100 | 50 to 100 | A (80–100) | –
CCC1CCC(C(=O)Nc2c(F)ccc(NC(=O)c3cc(NC(=O)[C@H]4[C@H](c5ccc(F)c(C(F)(F)F)c5)C4(Cl)Cl)ccc3Cl)c2F)O1 (stereo partly drawn) [F1626, N-(3-(2-Chloro-5-((1R,3R)-2,2-dichloro-3-(4-fluoro-3-(trifluoromethyl)phenyl)cyclopropane-1-carboxamido)benzamido)-2,6-difluorophenyl)-5-ethyltetrahydrofuran-2-carboxamide] | 50 to 100 | 50 to 100 | A (80–100) | – | – | – | –
Cc1c(F)cc(NC(=O)[C@H]2[C@H](c3ccc(F)c(Cl)c3)C2(Cl)Cl)cc1C(=O)NCC(F)(F)C(F)(F)F (relative stereo) [F2064, trans-5-(2,2-Dichloro-3-(3-chloro-4-fluorophenyl)cyclopropane-1-carboxamido)-3-fluoro-2-methyl-N-(2,2,3,3,3-pentafluoropropyl)benzamide] | – | – | – | 50 to 100 | 50 to 100 | A (80–100) | –
O=C(NNCc1ccc(F)cc1F)c1cc(NC(=O)[C@H]2[C@H](c3cc(Cl)cc(Cl)c3)C2(Cl)Cl)ccc1Cl (relative stereo) [F2547, trans-2,2-dichloro-N-(4-chloro-3-(2-(2,4-difluorobenzyl)hydrazine-1-carbonyl)phenyl)-3-(3,5-dichlorophenyl)cyclopropane-1-carboxamide] | – | – | – | 50 to 100 | 50 to 100 | A (80–100) | –
O=C(NCC(F)(F)c1ccccc1)c1cc(NC(=O)[C@H]2[C@H](c3cc(Cl)cc(Cl)c3)C2(Cl)Cl)ccc1Cl (relative stereo) [F2077, trans-2-Chloro-5-(2,2-dichloro-3-(3,5-dichlorophenyl)cyclopropane-1-carboxamido)-N-(2,2-difluoro-2-phenylethyl)benzamide] | – | – | – | 50 to 100 | 50 to 100 | B (More than 0 – Less than 80) | –
CN(C(=O)c1cc(NC(=O)[C@H]2[C@H](c3ccc(F)c(C(F)(F)F)c3)C2(Cl)Cl)ccc1Cl)c1ccc(F)c(NC(=O)C(F)(F)F)c1F [F1795, 2-Chloro-5-((1R,3R)-2,2-dichloro-3-(4-fluoro-3-(trifluoromethyl)phenyl)cyclopropane-1-carboxamido)-N-(2,4-difluoro-3-(2,2,2-trifluoroacetamido)phenyl)-N-methylbenzamide] | – | – | – | 50 to 100 | 50 to 100 | A (80–100) | –
O=C(Nc1ccc(F)c(NC(=O)C2CCCO2)c1F)c1cc(NC(=O)[C@H]2[C@H](c3cc(F)cc(C(F)(F)F)c3)C2(Cl)Cl)ccc1Cl (stereo partly drawn) [F1706, N-(3-(2-Chloro-5-((1R,3R)-2,2-dichloro-3-(3-fluoro-5-(trifluoromethyl)phenyl)cyclopropane-1-carboxamido)benzamido)-2,6-difluorophenyl)tetrahydrofuran-2-carboxamide] | 50 to 100 | 50 to 100 | A (80–100) | – | – | – | –
O=C(Nc1cc(NC(=O)C(F)(F)F)c(F)cc1F)c1cc(NC(=O)[C@H]2[C@H](c3ccc(Cl)c(Cl)c3)C2(Cl)Cl)ccc1F [F1510, 5-((1R,3R)-2,2-Dichloro-3-(3,4-dichlorophenyl)cyclopropane-1-carboxamido)-N-(2,4-difluoro-5-(2,2,2-trifluoroacetamido)phenyl)-2-fluorobenzamide] | 50 to 100 | 50 to 100 | A (80–100) | – | – | – | –
Nc1c(F)ccc(NC(=O)c2cc(NC(=O)[C@H]3[C@@H](c4cc(F)c(F)c(Br)c4)C3(Cl)Cl)ccc2Cl)c1F (relative stereo) [F1045, cis-N-(3-Amino-2,4-difluorophenyl)-5-(3-(3-bromo-4,5-difluorophenyl)-2,2-dichlorocyclopropane-1-carboxamido)-2-chlorobenzamide] | – | – | – | – | – | – | pest or weed control at 50 µg/cm2 [1, 9]: 50 to 100%; pest or weed control at 50 µg/cm2 [2, 10]: 50 to 100%; YFM [3, 11]: A (80–100)
O=C(CCC(F)(F)F)Nc1c(F)ccc(NC(=O)c2cc(NC(=O)[C@H]3[C@H](c4ccc(Cl)c(Cl)c4)C3(Cl)Cl)ccc2Cl)c1F [F1847, 2-Chloro-5-((1R,3R)-2,2-dichloro-3-(3,4-dichlorophenyl)cyclopropane-1-carboxamido)-N-(2,4-difluoro-3-(4,4,4-trifluorobutanamido)phenyl)benzamide] | – | – | – | 50 to 100 | 50 to 100 | A (80–100) | –
CC(F)(F)CCC(=O)Nc1c(F)ccc(NC(=O)c2cc(NC(=O)[C@H]3[C@H](c4ccc(F)c(C(F)(F)F)c4)C3(Cl)Cl)ccc2Cl)c1F [F1843, 2-Chloro-5-((1R,3R)-2,2-dichloro-3-(4-fluoro-3-(trifluoromethyl)phenyl)cyclopropane-1-carboxamido)-N-(3-(4,4-difluoropentanamido)-2,4-difluorophenyl)benzamide] | – | – | – | 50 to 100 | 50 to 100 | A (80–100) | –
O=C(Nc1ccc(F)cc1F)c1cc(NC(=O)[C@H]2[C@H](c3ccc(F)c(Cl)c3)C2(Cl)Cl)cc(C(F)(F)F)c1Cl (relative stereo) [F1215, trans-2-Chloro-5-(2,2-dichloro-3-(3-chloro-4-fluorophenyl)cyclopropane-1-carboxamido)-N-(2,4-difluorophenyl)-3-(trifluoromethyl)benzamide] | – | – | – | – | – | – | pest or weed control at 50 µg/cm2 [1, 9]: 50 to 100%; pest or weed control at 50 µg/cm2 [2, 10]: 50 to 100%; YFM [3, 11]: A (80–100)

— patent US20250228239A1, “MOLECULES HAVING PESTICIDAL UTILITY, AND INTERMEDIATES, COMPOSITIONS, AND PROCESSES, RELATED THERETO” (priority 2024, published 2025)
